Laboratory results as given in PubChem BioAssay (NCI).
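All cell lines were grown in 96-well plates and treated with compound for 48 hours. The concentration for 50% growth inhibition is given as GI50. TGI marks complete inhibition of growth.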

Experiments:
Experiment in all cases: NCI tumour cell line growth inhibition, 48 h
[1] = system: 786-0 renal
[2] = system: A498 renal
[3] = system: A549 NSCLC
[4] = system: ACHN renal
[5] = system: BT-549 breast
[6] = system: CAKI-1 renal
[7] = system: CCRF-CEM leukemia
[8] = system: COLO 205 colon
[9] = system: DU-145 prostate
[10] = system: HCC-2998 colon
[11] = system: HCT-15 colon
[12] = system: HL-60(TB) leukemia
[13] = system: HOP-62 NSCLC
[14] = system: HOP-92 NSCLC
[15] = system: HS 578T breast
[16] = system: HT29 colon
[17] = system: IGROV1 ovarian
[18] = system: K-562 leukemia
[19] = system: KM12 colon
[20] = system: M14 melanoma
[21] = system: MALME-3M melanoma
[22] = system: MCF7 breast
[23] = system: MDA-MB-231 breast
[24] = system: MDA-MB-435
[25] = system: MOLT-4 leukemia
[26] = system: NCI-H226 lung
[27] = system: NCI-H23 lung
[28] = system: NCI-H460 lung
[29] = system: NCI/ADR-RES ovarian
[30] = system: OVCAR-4 ovarian
[31] = system: OVCAR-5 ovarian
[32] = system: OVCAR-8 ovarian
[33] = system: PC-3 prostate
[34] = system: RPMI-8226 leukemia
[35] = system: RXF 393 renal
[36] = system: SF-268 CNS
[37] = system: SF-295 CNS
[38] = system: SF-539 CNS
[39] = system: SK-MEL-2 melanoma
[40] = system: SK-MEL-28 melanoma
[41] = system: SK-MEL-5 melanoma
[42] = system: SK-OV-3 ovarian
[43] = system: SN12C renal
[44] = system: SNB-19 CNS
[45] = system: SNB-75 CNS
[46] = system: SR leukemia
[47] = system: SW-620 colon
[48] = system: T-47D breast
[49] = system: TK-10 renal
[50] = system: UACC-257 melanoma
[51] = system: UACC-62 melanoma
[52] = system: UO-31 renal
[53] = system: EKVX NSCLC
[54] = system: HCT-116 colon
[55] = system: NCI-H522 lung
[56] = system: U251 CNS

Cc1cc2nc(C(Cl)Cl)nc(-c3cccs3)n2n1
GI50 [1]: 4700 nM | TGI [1]: > 100000 nM | GI50 [2]: 1200 nM | TGI [2]: 2660 nM | GI50 [3]: 374 nM | TGI [3]: 3510 nM | GI50 [4]: 366 nM | TGI [4]: 2440 nM | GI50 [5]: 7670 nM | TGI [5]: > 100000 nM | GI50 [6]: 1660 nM | TGI [6]: 5970 nM | GI50 [7]: 4220 nM | TGI [7]: > 100000 nM | GI50 [8]: 942 nM | TGI [8]: 3290 nM | GI50 [9]: 289 nM | TGI [9]: 858 nM | GI50 [10]: 514 nM | TGI [10]: 1910 nM | GI50 [11]: 1200 nM | TGI [11]: 4030 nM | GI50 [12]: 346 nM | TGI [12]: 2390 nM | GI50 [13]: 938 nM | TGI [13]: 4430 nM | GI50 [14]: 1410 nM | TGI [14]: 3920 nM | GI50 [15]: 1930 nM | TGI [15]: 6210 nM | GI50 [16]: 496 nM | TGI [16]: 2190 nM | GI50 [17]: 2430 nM | TGI [17]: > 100000 nM | GI50 [18]: 2540 nM | TGI [18]: > 100000 nM | GI50 [19]: 2020 nM | TGI [19]: 4510 nM | GI50 [20]: 2100 nM | TGI [20]: 4990 nM | GI50 [21]: 2210 nM | TGI [21]: 5310 nM | GI50 [22]: 705 nM | TGI [22]: > 100000 nM | GI50 [23]: 1550 nM | TGI [23]: 4430 nM | GI50 [24]: 1860 nM | TGI [24]: 3810 nM | GI50 [25]: 1480 nM | TGI [25]: > 100000 nM | GI50 [26]: > 100000 nM | TGI [26]: > 100000 nM | GI50 [27]: 953 nM | TGI [27]: 2960 nM | GI50 [28]: 333 nM | TGI [28]: 1570 nM | GI50 [29]: 1260 nM | TGI [29]: 4720 nM | GI50 [30]: 2120 nM | TGI [30]: 4740 nM | GI50 [31]: 1930 nM | TGI [31]: 5730 nM | GI50 [32]: 1270 nM | TGI [32]: > 100000 nM | GI50 [33]: 1410 nM | TGI [33]: 4320 nM | GI50 [34]: 1400 nM | TGI [34]: 5470 nM | GI50 [35]: 838 nM | TGI [35]: 2230 nM | GI50 [36]: 1980 nM | TGI [36]: 7270 nM | GI50 [37]: 1270 nM | TGI [37]: 5800 nM | GI50 [38]: 2270 nM | TGI [38]: 7490 nM | GI50 [39]: 3050 nM | TGI [39]: > 100000 nM | GI50 [40]: 1830 nM | TGI [40]: 3630 nM | GI50 [41]: 9610 nM | TGI [41]: > 100000 nM | GI50 [42]: 2150 nM | TGI [42]: 6510 nM | GI50 [43]: > 100000 nM | TGI [43]: > 100000 nM | GI50 [44]: 1180 nM | TGI [44]: 5990 nM | GI50 [45]: 702 nM | TGI [45]: 2940 nM | GI50 [46]: 1430 nM | TGI [46]: > 100000 nM | GI50 [47]: 1380 nM | TGI [47]: 8100 nM | GI50 [48]: 1400 nM | TGI [48]: 7660 nM | GI50 [49]: 2110 nM | TGI [49]: 5920 nM | GI50 [50]: 1870 nM | TGI [50]: 4550 nM | GI50 [51]: 3000 nM | TGI [51]: > 100000 nM | GI50 [52]: 1670 nM | TGI [52]: 5140 nM

Cc1ccc(NC(=O)c2ccc(CN3CCN(C)CC3)c(C(F)(F)F)c2)cc1Oc1ccc(-c2[nH]nc3ncnc(N)c23)cc1
GI50 [2]: 18400 nM | TGI [2]: 42900 nM | GI50 [3]: 2180 nM | TGI [3]: 5360 nM | GI50 [4]: 1730 nM | TGI [4]: 3180 nM | GI50 [6]: 9050 nM | TGI [6]: 29700 nM | GI50 [8]: 7290 nM | TGI [8]: 25200 nM | GI50 [9]: 1830 nM | TGI [9]: 3470 nM | GI50 [53]: 2010 nM | TGI [53]: 4190 nM | GI50 [54]: 1890 nM | TGI [54]: 4350 nM | GI50 [11]: 1570 nM | TGI [11]: 3290 nM | GI50 [12]: 6420 nM | TGI [12]: 78500 nM | GI50 [13]: 2260 nM | TGI [13]: 5140 nM | GI50 [15]: 4970 nM | TGI [15]: 42800 nM | GI50 [18]: 713 nM | TGI [18]: > 100000 nM | GI50 [19]: 1600 nM | TGI [19]: 3670 nM | GI50 [20]: 1720 nM | TGI [20]: 4280 nM | GI50 [24]: 1610 nM | TGI [24]: 3340 nM | GI50 [25]: 2030 nM | TGI [25]: 7310 nM | GI50 [26]: 18000 nM | TGI [26]: 72900 nM | GI50 [28]: 1840 nM | TGI [28]: 3590 nM | GI50 [55]: 3040 nM | TGI [55]: 9350 nM | GI50 [29]: 3080 nM | TGI [29]: 12900 nM | GI50 [30]: 18700 nM | TGI [30]: 42000 nM | GI50 [31]: 1970 nM | TGI [31]: 3660 nM | GI50 [36]: 3770 nM | TGI [36]: 30200 nM | GI50 [37]: 8510 nM | TGI [37]: 44100 nM | GI50 [38]: 1160 nM | TGI [38]: 2500 nM | GI50 [39]: 23200 nM | TGI [39]: 81700 nM | GI50 [40]: 1740 nM | TGI [40]: 3390 nM | GI50 [41]: 1670 nM | TGI [41]: 3090 nM | GI50 [42]: 23500 nM | TGI [42]: 56500 nM | GI50 [43]: 3680 nM | TGI [43]: 18700 nM | GI50 [45]: 419 nM | TGI [45]: 24000 nM | GI50 [47]: 1970 nM | TGI [47]: 3690 nM | GI50 [48]: 2610 nM | TGI [48]: 7170 nM | GI50 [49]: 32400 nM | TGI [49]: 63300 nM | GI50 [50]: 2510 nM | TGI [50]: 5800 nM | GI50 [51]: 2020 nM | TGI [51]: 4810 nM

N#Cc1cnc2ccc(-c3cnc4[nH]ncc4c3)cc2c1N1CCc2cc(F)c(Cl)cc21
GI50 [1]: 370 nM | TGI [1]: 5120 nM | GI50 [3]: 292 nM | TGI [3]: > 100000 nM | GI50 [4]: 360 nM | TGI [4]: > 100000 nM | GI50 [5]: 232 nM | TGI [5]: 716 nM | GI50 [6]: 250 nM | TGI [6]: > 100000 nM | GI50 [7]: 355 nM | TGI [7]: > 100000 nM | GI50 [9]: 372 nM | TGI [9]: > 100000 nM | GI50 [53]: 309 nM | TGI [53]: > 100000 nM | GI50 [11]: 293 nM | TGI [11]: > 100000 nM | GI50 [13]: 255 nM | TGI [13]: 1100 nM | GI50 [14]: 204 nM | TGI [14]: 673 nM | GI50 [15]: 151 nM | TGI [15]: 406 nM | GI50 [17]: 177 nM | TGI [17]: 544 nM | GI50 [18]: 360 nM | TGI [18]: > 100000 nM | GI50 [19]: 400 nM | TGI [19]: > 100000 nM | GI50 [20]: 322 nM | TGI [20]: > 100000 nM | GI50 [21]: 232 nM | TGI [21]: 648 nM | GI50 [23]: 302 nM | TGI [23]: 6700 nM | GI50 [27]: 406 nM | TGI [27]: > 100000 nM | GI50 [28]: 327 nM | TGI [28]: > 100000 nM | GI50 [55]: 254 nM | TGI [55]: 725 nM | GI50 [29]: 334 nM | TGI [29]: > 100000 nM | GI50 [31]: 371 nM | TGI [31]: > 100000 nM | GI50 [32]: 348 nM | TGI [32]: > 100000 nM | GI50 [34]: 402 nM | TGI [34]: > 100000 nM | GI50 [35]: 171 nM | TGI [35]: 599 nM | GI50 [36]: 296 nM | GI50 [37]: 206 nM | TGI [37]: 599 nM | GI50 [38]: 230 nM | TGI [38]: 564 nM | GI50 [39]: 222 nM | TGI [39]: 518 nM | GI50 [40]: 330 nM | TGI [40]: > 100000 nM | GI50 [42]: 214 nM | TGI [42]: 591 nM | GI50 [43]: 303 nM | TGI [43]: > 100000 nM | GI50 [44]: 399 nM | TGI [44]: > 35400 nM | GI50 [45]: 145 nM | TGI [45]: 428 nM | GI50 [46]: 262 nM | TGI [46]: > 100000 nM | GI50 [47]: 389 nM | TGI [47]: > 100000 nM | GI50 [48]: 214 nM | TGI [48]: > 100000 nM | GI50 [49]: 275 nM | TGI [49]: > 36200 nM | GI50 [56]: 373 nM | TGI [56]: > 100000 nM | GI50 [50]: 312 nM | TGI [50]: > 100000 nM | GI50 [51]: 250 nM
